{"source": "patent US7320970B2", "about": "“Low dose estrogen interrupted hormone replacement therapy” (Duramed Pharmaceutials, Inc., priority 1999, dated 2008)", "origin": "cited, not measured here", "key": {"[1]": {"biological_target": "T1, human sex-hormone-binding globulin (SHBG) (Homo sapiens, UniProt P04278)", "T1 sequence (P04278 30-402)": "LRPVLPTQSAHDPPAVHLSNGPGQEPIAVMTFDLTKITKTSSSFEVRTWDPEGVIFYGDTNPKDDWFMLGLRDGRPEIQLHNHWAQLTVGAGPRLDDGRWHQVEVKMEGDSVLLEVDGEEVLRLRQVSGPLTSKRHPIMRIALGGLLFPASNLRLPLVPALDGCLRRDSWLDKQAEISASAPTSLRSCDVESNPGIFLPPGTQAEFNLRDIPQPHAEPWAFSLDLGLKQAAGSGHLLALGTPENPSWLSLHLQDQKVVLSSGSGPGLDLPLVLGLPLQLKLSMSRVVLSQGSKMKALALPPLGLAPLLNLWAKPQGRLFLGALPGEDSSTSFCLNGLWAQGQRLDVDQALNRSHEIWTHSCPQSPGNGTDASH"}}, "data": [{"smiles": "CC(=O)O[C@]1(C(C)=O)CC[C@H]2[C@@H]3C=C(C)C4=CC(=O)CC[C@]4(C)[C@H]3CC[C@@]21C", "note": "[megestrol acetate]", "values": [{"measurement": "decrease in the frequency of hot flushes", "setting": "hot flushes; dose of 20 to 80 mg/day, versus 21 percent with placebo", "result": 85, "unit": "%"}]}, {"smiles": "C#C[C@]1(OC(C)=O)CC[C@H]2[C@@H]3CCC4=CC(=O)CC[C@@H]4[C@H]3CC[C@@]21C", "note": "[norethindrone acetate]", "values": [{"measurement": "effectiveness against hot flushes", "setting": "hot flushes; 10 mg daily", "result": "effective"}]}, {"smiles": "C#C[C@]1(OC(C)=O)CC[C@H]2[C@@H]3CCC4=C/C(=N/O)CC[C@@H]4[C@H]3CC[C@@]21CC", "note": "[norgestimate, D-17β-acetoxy-B-ethyl-17α ethinyl-gon-4-en-3-one oxime]", "values": [{"measurement": "binding to progestin receptors", "setting": "progestin receptors", "result": "binds to progestin receptors"}, {"measurement": "affinity for SHBG", "setting": "[1]", "result": "lack of affinity for SHBG"}]}]}
